Results: patent US20100170777A1, “AGENT FOR DEGRADING A NUCLEIC ACID AND METHOD OF DEGRADING A NUCLEIC ACID” (Morinaga Milk Industry Co., Ltd., priority 2006, published 2010)

Experiments:
E. coli chromosomal DNA [1] = test: Influence of EMA plus visible light on isolated E. coli nucleic acid in vitro (agarose gel electrophoresis), chromosomal DNA band; type: biochemical; settings: visible light 500 W halogen bulb 20 min
Method: (§1) b 1 ml living bacterial suspension of 1.0×10^6 CFU/ml of E. coli/DH5α strain was subjected to centrifugation under a cool condition. After removal of the supernatant, the resulting pellet was added with 0.5 ml of 10 mM Tris-HCl buffer solution (pH 8.0) and further added with 10 μl of 1250U/ml protease K solution and 200 μl of 10% SDS solution, followed by overnight bacteriolysis at 50° C.
(§2) Subsequently, each of the treated solution was divided into two equal volumes and dispensed into two 2 ml micro tubes, respectively. Each of them was added with 0.5 ml of saturated phenol solution, then gently mixed for 15 minutes, and then added with 0.5 ml of chloroform, followed by gently mixing for 5 minutes. After that, the mixture was centrifuged at 6,000×g at 4° C. for 10 minutes. An aqueous phase, an upper layer, was transferred into an another 2 ml microtube and then added with 70 μl of 3M sodium acetate (pH 5.2) and 1.21 ml of 99.5% cold ethanol, followed by gentle mixing. […] The concentration of the purified nucleic acid solution was determined based on the absorbance at UV260 nm (50 μg/ml of the nucleic acid was defined as OD=1, cell length=1 cm:OD260).
(§3) The nucleic acid solution thus prepared was adjusted to 175 ng/μl with sterile water and 4 μl aliquot of the nucleic acid solution was then added to each of microtubes. […] The resulting image was recorded on the Polaroid film 667. […]

[2] = system: rRNA (16SrRNA and 23SrRNA); test: Influence of EMA plus visible light on isolated E. coli nucleic acid in vitro (agarose gel electrophoresis), rRNA bands; type: biochemical; settings: visible light 500 W halogen bulb 20 min
Method: as §1, §2, §3

[3] = system: chromosomal DNA in the nucleic acid existing inside of the living bacteria (E. coli); test: Influence of EMA plus visible light on nucleic acid inside living E. coli (in vivo; agarose gel electrophoresis), chromosomal DNA band; type: cell-based; settings: living E. coli/DH5α suspension, visible light 500 W halogen bulb 20 min
Method: (§4) EMA was dissolved in sterile water to prepare 1000 μg/ml EMA solution. The solution was filtrated for sterilization through a 0.2 μm filter (Minisart-plus; manufactured by Sartorius AG). The EMA solution was added so that the final concentration of EMA become 0 (no addition), 0.01, 0.1, 1, 10, and 100 μg/ml with respect to 1 ml of 1.0×10^6CFU/ml living bacterial suspension of E. coli/DH5α strain, followed by leaving standing at 4° C. for 1 hour.
(§5) Subsequently, at a distance of 20 cm from the above living bacterial suspension on ice, the sample was irradiated for 20 minutes with visible light from a 500 W halogen bulb (FLOOD PRF 100V 500 W; Iwasaki Electric Co., Ltd., Tokyo). […]
(§6) Each of the treated solution was divided into two equal volumes and dispensed into two 2 ml micro tubes, respectively. […] The concentration of the purified nucleic acid solution was determined based on the absorbance at UV260 nm (50 μg/ml of the nucleic acid was defined as OD=1, cell length=1 cm:OD260). The purity of the purified nucliec acid was calculated by dividing OD260 with OD280.
(§7) Each of the nucleic acid solutions was prepared at 175 ng/μl and 4 μl of each was then electrophoresed on 0.7% agarose gel. λ-EcoT14 I digest (manufactured by Takara Bio Inc.) was used as a molecular weight marker. […] The resulting image was recorded on the Polaroid film 667. […]

[4] = system: rRNA (16SrRNA and 23SrRNA) of living bacteria (E. coli); test: Influence of EMA plus visible light on nucleic acid inside living E. coli (in vivo; agarose gel electrophoresis), rRNA bands; type: cell-based; settings: EMA 10 μg/ml; living E. coli/DH5α suspension; visible light 500 W halogen bulb 20 min
Method: as §4, §5, §6, §7

E. coli/DH5α strain = test: Antibacterial effect of EMA on living bacteria (number of living bacterial cells); type: cell-based; settings: 1.0×10^6 CFU/ml E. coli/DH5α, visible light 500 W halogen bulb 20 min
Method: as §4, with “Ethidium monoazide (EMA) was” for “EMA was”, “filtrated” for “filtrated for sterilization”, “μm sterile” for “μm”, “100 μg/ml, respectively” for “100 μg/ml”, “by left” for “by leaving”, “1 hour under light interception.” for “1 hour.”
Subsequently, at a distant of 20 cm from the above living bacterial suspension on ice, the sample was irradiated for 20 minutes with visible light from a 500 W halogen bulb (FLOOD PRF 100V 500 W; Iwasaki Electric Co., Ltd., Tokyo). The sample was subjected to centrifugation at 15,000×g at 4° C. for 10 minutes and the supernatant was then removed to eliminate a product generated by the reaction of water with the visible light irradiation product of EMA (hydroxyamino ethidium), which could not covalently bind to nucleic acid. The pellet was added with an equal amount of physiological saline solution and then serially diluted, followed by 24 hour incubation at 37° C. using an L-plate agar culture medium to determine the number of living bacterial cells.

E. coli chromosomal DNA [5] = test: Electron microscopy of E. coli chromosomal DNA treated with EMA and visible light in vitro; type: biochemical; settings: visible light 500 W halogen bulb 20 min
Method: Nucleic acid was extracted in a manner similar to Example 1 as described above. The nucleic acid was then dissolved in 9 ml of sterile water. A nucleic acid solution thus prepared was gently loaded on the top of 32 ml sucrose density gradient (16 ml of 10% sucrose solution and 16 ml of 40% sucrose solution were used) and then subjected to ultracentrifugation at 26,000 rpm at 20° C. for 18 hours with a swing rotor (manufactured by Hitachi Koki Co., Ltd.: RPS-27-2). After the centrifugation, a small hole was opened in the bottom of the sucrose density gradient solution and then fractionated every 1 ml.
After that, for each fraction, 3M sodiumacetate solution (pH 5.2) was added so as to be 10% (vol/vol). Then, 2-fold volume of 99.5% ethanol was added. Subsequently, the fraction was subjected to centrifugation at 15,000×g at 4° C. for 10 minutes to recover the pellet. Then, the pellet was washed with 70% ethanol and then dissolved in 100 μl of sterile water.
Among the samples obtained from the respective fraction solutions, a sample only containing a long chromosomal DNA with 48 kbp in agarose electrophoresis was further diluted with sterile water so as to be a DNA concentration of 175 ng/μl. Then 4 μl of each aqueous EMA solution (0, 0.02, 2, and 20 μg/ml) was added to 4 μl of the DNA solution and then left standing at 4° C. for 1 hour under light interception. […]

CC[n+]1c(-c2ccccc2)c2cc(N=[N+]=[N-])ccc2c2ccc(N)cc21.[Cl-] [EMA, 3-amino-8-azido-5-ethyl-6-phenyl-phenanthridinium chloride]
intensity of the band originated from the chromosomal DNA of approximately 19,329 bps (E. coli chromosomal DNA [1]; EMA 100 ng/ml to 1 μg/ml): gradually decreased | intensity of the band originated from the chromosomal DNA of approximately 19,329 bps (E. coli chromosomal DNA [1]; EMA 10 μg/ml): significantly disappeared | band intensity of rRNA (16SrRNA and 23SrRNA) ([2]; EMA 1 μg/ml): decreased | band intensity of rRNA (16SrRNA and 23SrRNA) ([2]; EMA 10 μg/ml or more): disappeared | intensity of the band originated from the chromosomal DNA of approximately 19,329 bps ([3]; EMA 10 μg/ml): gradually decreased | intensity of the band originated from the chromosomal DNA of approximately 19,329 bps ([3]; EMA 100 μg/ml): significantly disappeared | band intensity of rRNA (16SrRNA and 23SrRNA) [4]: decreased | decrease in number of living bacterial cells in comparison with the original number (E. coli/DH5α strain; EMA 10 μg/ml): ~10^2 CFU/ml | decrease in number of living bacterial cells in comparison with the original number (E. coli/DH5α strain; EMA 100 μg/ml): ~10^5 CFU/ml | effect of cleaving the chromosomal DNA (electron microscopy) (E. coli chromosomal DNA [5]; EMA 0 to 0.01 μg/ml): not observed | effect of cleaving the chromosomal DNA (electron microscopy) (E. coli chromosomal DNA [5]; EMA 1 μg/ml or more): caused the cleaving phenomenon of chromosomal DNA
